Values quoted from earlier work as cited in patent publication US20100047343A1, “MULTIPARTICULATE FORMULATION HAVING TRAMADOL IN IMMEDIATE AND CONTROLLED RELEASE FORM” (The University of Kansas, priority 2006, published 2010).
Where a name gives a salt, the structure may show the parent alone. Read-outs that look alike come from different tables or passages of the source.

How the values were obtained:
[1] = for accumulation: multiple dose treatment with tramadol HCl; for half-life: single oral dose of 100 mg
[2] = single oral dose of rapid release tramadol HCl (100 mg)
[3] = after oral administration of ULTRAM

SMILES	accumulation [1]	half-life [1]	solubility in water (24° C.)	density of saturated solution (37° C.)	solubility in water (37° C.)	viscosity (sat'd. sol.) (37° C.)	bioavailability [1, 3]	time to peak serum concentrations [1, 3]	duration of the analgesic effect [2]
CN(C)C[C@H]1CCCC[C@]1(O)c1cccc(O)c1 [M1 derivative]	approximately 2 fold	9 h	–	–	–	–	–	–	–
COc1cccc(C2(O)CCCCC2CN(C)C)c1 (centres unmarked) [tramadol HCl]	–	–	790 mg/mL	1.1079	840 mg/mL	86.5 cp	68%	≤ 2 h	about 6 hours
COc1cccc(C2(O)CCCCC2CN(C)C)c1 (centres unmarked) [tramadol]	approximately 2 fold	5.1 h	–	–	–	–	–	–	–
